The values that follow come from a flash point compilation (Sun et al. 2020).

Each structure is given as a SMILES string.

For `CCCCCCC(C)O` (configuration not stated) [2-Octanol], the flash point is 88.00 °C.

`CCCC(C)O` (configuration not stated) [2-Pentanol] gave a flash point of 39.00 °C.

In the case of `C=CCOC(C)=O` [Allyl acetate], the flash point was determined as 21.00 °C.

`CCCCC(=O)O` [Valeric acid]: the flash point worked out at 96.00 °C.

This is another data set of the same source.
The compound `CCCCCCC(C)O` (configuration not stated) [2-Octanol] came in with a flash point of 71.0 °C.

As for `CCCC(C)O` (configuration not stated) [2-Pentanol], the flash point stood at 34.0 °C.

`C=CCOC(C)=O` [Allyl acetate] had a flash point of 10 °C.

Compound `CCCCCCCCCCC=O` [Undecanal] gave a flash point of 96.0 °C.

As for `CCCCC(=O)O` [Valeric acid], the flash point came out at 86.0 °C.

`C=COCCCC` [n-Butylvinylether] displayed a flash point of -1 °C.

Take `CCCCCC` [n-HEXANE]: the flash point was -21.6 °C.

Compound `c1ccc(-c2ccc(-c3ccccc3)cc2)cc1` [p-Terphenyl] returned a flash point of 207 °C.

The compound `CCC(C)O` (configuration not stated) [sec-Butanol] came in with a flash point of 23.0 °C.

This is another data set of the same source.
For `C[Si](C)(Cl)O[Si](C)(C)Cl` [1,3-Dichlorotetramethyldisiloxane], the flash point is 15.00 °C.

In the case of `C=C[Si](C)(C)N[Si](C)(C)C=C` [1,3-Divinyltetramethyldisilazane], the flash point was determined as 34.00 °C.

On to `CCCCC=C[Si](Cl)(Cl)Cl` [1-Hexenyltrichlorosilane], for which the flash point came to 60.00 °C.

In the case of `CC#C[Si](C)(C)C` [1-Trimethylsilylpropyne], the flash point was -3.00 °C.

Compound `CO[Si](CCC1CCC2OC2C1)(OC)OC` (configuration not stated) [2-(3,4-epoxycyclohexyl)ethyltrimethoxysilane] gave a flash point of 146.00 °C.

As for `CC(CCl)C[Si](C)(Cl)Cl` (configuration not stated) [3-Chloro-2-methylpropylmethyldichlorosilane], the flash point is 90.00 °C.

The compound `CO[Si](C)(CCCCl)OC` [3-Chloropropylmethyldimethoxysilane] displayed a flash point of 45.00 °C.

Consider `ClCCC[Si](Cl)(Cl)Cl` [3-Chloropropyltrichlorosilane], for which the flash point was 84.00 °C.

The compound `CO[Si](CCCOCC1CO1)(OC)OC` (configuration not stated) [3-Glycidoxypropyltrimethoxysilane] displayed a flash point of 110.00 °C.

On to `C=C(C)C(=O)OCCC[Si](OC)(OC)OC` [3-Methacryloxypropyltrimethoxysilane], for which the flash point was 92.00 °C.

On to `COCC(C)O[Si](C)(C)C` (configuration not stated) [(1-Methoxy-2-propoxy)trimethylsilane], for which the flash point worked out at 20.00 °C.

In turn, `C=CC=CC[Si](C)(C)C` [(2,4-Pentadienyl)trimethylsilane] gave a flash point of 18.00 °C.

`C[Si](C)(C)OC1=CCCC1` [(Cyclopentenyloxy)trimethylsilane] gave a flash point of 38.00 °C.

Take `CCN(CC)[Si](C)(C)C` [(Diethylamino)trimethylsilane]: the flash point turned out to be 10.00 °C.

`CC(C)N(C(C)C)[Si](C)(C)C` [(Diisopropylamino)trimethylsilane] returned a flash point of 28.00 °C.

As to `CN(C)[SiH](C)C` [(N,N-Dimethylamino)dimethylsilane], the flash point is -13.00 °C.

`CC[Si](CC)(CC)N(C)C` [(N,N-Dimethylamino)triethylsilane] yielded a flash point of 26.00 °C.

Compound `CC(=O)OC[Si](C)(C)C` [Acetoxymethyltrimethylsilane] displayed a flash point of 20.00 °C.

Take `C=CC[Si](C)(C)Cl` [Allyl Dimethylchlorosilane]: the flash point is 5.00 °C.

For the compound `C=CC[Si](Cl)(Cl)Cl` [Allyltrichlorosilane], the flash point came to 31.00 °C.

In turn, `C=CC[Si](OC)(OC)OC` [Allyltrimethoxysilane] returned a flash point of 46.00 °C.

On to `C=CC[Si](C)(C)C` [Allyltrimethylsilane], for which the flash point came to 7.00 °C.

For the compound `C[Si](C)(C)C[Si](C)(C)C` [Bis(trimethylsilyl)methane], the flash point was determined as 12.00 °C.

On to `C[Si](C)(C)CBr` [Bromomethyltrimethylsilane], for which the flash point was 16.00 °C.

`C[Si](C)(Cl)CCl` [Chloromethyldimethylchlorosilane]: the flash point stood at 22.00 °C.

Take `CCO[Si](C)(C)CCl` [Chloromethyldimethylethoxysilane]: the flash point is 26.00 °C.

`Cl[Si](Cl)(Cl)C1CCCC1` [Cyclopentyltrichlorosilane] came in with a flash point of 77.00 °C.

Compound `C[Si](C)(C)O[Si](C)(C)O[Si](C)(C)O[Si](C)(C)C` [Decamethyltetrasiloxane] yielded a flash point of 62.00 °C.

Consider `CC[Si](Cl)(Cl)CC` [Dichlorodiethylsilane], for which the flash point was found to be 24.00 °C.

Consider `Cl[SiH2]Cl` [Dichlorosilane], for which the flash point is -37.00 °C.

Consider `CCO[Si](CC)(CC)OCC` [Diethyldiethoxysilane], for which the flash point was determined as 43.00 °C.

`CC[Si](C)(Cl)CC` [Diethylmethylchlorosilane] registered a flash point of 15.00 °C.

Regarding `CC(=O)O[Si](C)(C)OC(C)=O` [Dimethyldiacetoxysilane], the flash point was 37.00 °C.

Turning to `c1ccc([SiH2]c2ccccc2)cc1` [Diphenylsilane], the flash point was determined as 98.00 °C.

The compound `C[Si]1(C)O[Si](C)(C)O[Si](C)(C)O[Si](C)(C)O[Si](C)(C)O[Si](C)(C)O1` [Dodecamethylcyclohexasiloxane] showed a flash point of 93.00 °C.

`CC[SiH3]` [Ethylsilane]: the flash point was -60.00 °C.

With `CC[Si](OC)(OC)OC` [Ethyltrimethoxysilane], the flash point was found to be 27.00 °C.

As for `CCO[SiH2]CCCN` [Gamma-aminopropylethoxysilane], the flash point was 96.11 °C.

The compound `C[Si](C)(C)O[Si](C)(C)O[Si](C)(C)O[Si](C)(C)O[Si](C)(C)O[Si](C)(C)O[Si](C)(C)C` [Hexadecamethylheptasiloxane] gave a flash point of 133.00 °C.

As for `CC[Si](CC)(CC)O[Si](CC)(CC)CC` [Hexaethyldisiloxane], the flash point amounted to 76.00 °C.

With `C[Si](C)(C)O[Si](C)(C)C` [Hexamethyldisiloxane], the flash point is -3.00 °C.

Take `C[Si](C)(C)S[Si](C)(C)C` [Hexamethyldisilthiane]: the flash point came to 26.00 °C.

For the compound `CCCCCC[SiH](Cl)Cl` [Hexyldichlorosilane], the flash point was determined as 64.00 °C.

Take `CCCCCC[SiH3]` [Hexylsilane]: the flash point worked out at 12.00 °C.

As to `C[Si](C)(C)I` [Iodotrimethylsilane], the flash point is 15.00 °C.

Turning to `CO[Si](CC(C)C)(OC)OC` [Isobutyltrimethoxysilane], the flash point is 42.00 °C.

Regarding `CO[Si](C)(C)C` [Methoxytrimethylsilane], the flash point was -30.00 °C.

In turn, `CC(=O)O[Si](C)(OC(C)=O)OC(C)=O` [Methyltriacetoxysilane] had a flash point of 85.00 °C.

In turn, `C[Si](Cl)(Cl)Cl` [Methyltrichlorosilane] yielded a flash point of 3.00 °C.

For the compound `C[Si](C)(C)N1CCOCC1` [N-(Trimethylsilyl)morpholine], the flash point is 27.00 °C.

`C[Si](C)(C)O[Si](C)(C)O[Si](C)(C)O[Si](C)(C)O[Si](C)(C)O[Si](C)(C)O[Si](C)(C)O[Si](C)(C)C` [Octadecamethyloctasiloxane] showed a flash point of 144.00 °C.

The compound `C[Si]1(C)N[Si](C)(C)N[Si](C)(C)N[Si](C)(C)N1` [Octamethylcyclotetrasilazane] had a flash point of 66.00 °C.

On to `C[Si]1(C)O[Si](C)(C)O[Si](C)(C)O[Si](C)(C)O1` [Octamethylcyclotetrasiloxane], for which the flash point is 57.00 °C.

As for `CCCCCCCC[Si](OCC)(OCC)OCC` [Octyltriethoxysilane], the flash point stood at 100.00 °C.

Turning to `CO[Si](OC)(OC)c1ccccc1` [Phenyltrimethoxysilane], the flash point was 85.00 °C.

On to `CCO[Si](OCC)(OCC)OCC` [Tetraethoxysilane], for which the flash point stood at 50.00 °C.

As to `O=C=N[Si](N=C=O)(N=C=O)N=C=O` [Tetraisocyanatosilane], the flash point came out at 50.00 °C.

Regarding `C[SiH](C)O[Si](O[SiH](C)C)(O[SiH](C)C)O[SiH](C)C` [Tetrakisdimethylsiloxysilane], the flash point is 67.00 °C.

`C=C[Si](C=C)(C=C)C=C` [Tetravinylsilane] returned a flash point of 18.00 °C.

Compound `CCC[Si](Cl)(CCC)CCC` [Tri-n-propylchlorosilane] had a flash point of 76.00 °C.

As to `CCC[SiH](CCC)CCC` [Tri-n-propylsilane], the flash point is 43.00 °C.

Compound `N#CCCC[Si](Cl)(Cl)Cl` [Trichloro(3-cyanopropyl) Silane] came in with a flash point of 92.00 °C.

Turning to `Clc1ccc([Si](Cl)(Cl)Cl)cc1` [Trichloro(p-chlorophenyl)silane], the flash point was 123.90 °C.

Take `CC[Si](Cl)(CC)CC` [Triethylchlorosilane]: the flash point was found to be 30.00 °C.

In the case of `CC[SiH](CC)CC` [Triethylsilane], the flash point is -3.00 °C.

With `C=CO[Si](C)(C)C` [Trimethyl(vinyloxy)silane], the flash point is -10.00 °C.

The compound `C=C(C)O[Si](C)(C)C` [Trimethyl[(1-methylethenyl)oxy]silane] came in with a flash point of -1.00 °C.

`C[Si](C)(C)Cl` [Trimethylchlorosilane] had a flash point of -18.00 °C.

Compound `C[Si](C)(C)c1ccccc1` [Trimethylphenylsilane] showed a flash point of 40.00 °C.

Take `C[Si](C)(C)OC(=O)C(F)(F)F` [Trimethylsilyltrifluoroacetate]: the flash point came to 0.00 °C.

Compound `c1ccc([SiH](c2ccccc2)c2ccccc2)cc1` [Triphenylsilane] gave a flash point of 143.20 °C.

`C[Si](C)(C)[SiH]([Si](C)(C)C)[Si](C)(C)C` [Tris(trimethylsilyl)silane] returned a flash point of 55.00 °C.

Regarding `[SiH3][SiH2][SiH3]` [Trisilane], the flash point is 0.00 °C.

For `C=C[Si](C)(C)OCC` [Vinyldimethylethoxysilane], the flash point turned out to be 4.00 °C.
